These results are taken from patent publication US6475985B1, “Nucleosides with antiviral and anticancer activity” (priority 1998, dated 2002).

Read-outs that look alike come from different tables or passages of the source.

The test system of series [1] is MCF-7 breast cancer cells. In words: Test G: activity against MCF-7 breast cancer cells. The class given is cell-based. On the procedure:
(§1) The activity of representative compounds of formula VII against MCF-7 breast cancer cells and CEM T-cell leukemia cells were determined using a procedure similar to that described by C. R. Wagner, et al. Cancer Research, 1997, 57, 2341-2345.

Series [2] relates to CEM T-cell leukemia cells. Put plainly: Test G: activity against CEM T-cell leukemia cells. The series is classed as cell-based. The procedure:
as §1

The next series is described as follows: in vitro. The note with it: cell media.
A short description of series [3]: Test F: stability in human plasma. The class given is in vitro ADME. The note with it: 37 C.
The subject of another series is PBMCs. To be noted: human. The procedure: (§2) The antiviral activity of representative compounds of the invention was determined with matched HIV-1 isolates and a laboratory HIV-1 strain as previously described (D. L. Mayers et al., Proc. Natl. Acad. Sci., USA 1995, 92, 215-219; and C. R. Wagner et al., Bioorganic and Medicinal Chemistry Letters, 1995, 5, 1819-1824).

The subject of another series is HIV-1. Put plainly: Test A: antiviral activity against HIV-1 isolates and laboratory strain in peripheral blood lymphocytes. The series is classed as cell-based. To be noted: Human immunodeficiency virus 1, Lymphocyte, read-out: Mean IC50 in PBLs. The procedure: as §2

Consider `COC(=O)[C@H](Cc1c[nH]c2ccccc12)NP(=O)(O)OC[C@H]1O[C@@H](n2cc(F)c(=O)[nH]c2=O)C[C@@H]1O` [Compound 37, 5-fluoro-2′deoxy-5′-uridyl N-((L)-1-carbomethoxy-2-indol-3-ylethyl)phosphoramidate], for which the “Half-life Cell Media 37 C” value is greater than 48 h. Moreover, in series [1], half-maximal cytotoxicity (CC50) was put at 25 nM. In series [2], this compound registered a CC50 of 320 nM.
Consider `O=c1[nH]c(=O)n([C@H]2C[C@H](O)[C@@H](CO)O2)cc1F` [FUdR, 5-fluorodeoxyuridine, reference compound], for which the half-life in the series “in vitro” was greater than 48 h; in series [3] it was 0.0833 to 0.167 h. Further, the CC50 stood at 11000 nM in series [1] (Homo sapiens, MCF7) and 1 nM in series [2] (T-cell).
Turning to `Nc1nccc2c1ncn2[C@@H]1O[C@H](CO)[C@@H](O)[C@H]1O` [DZA, 3-deaza adenosine, reference compound], the CC80 in the series with PBMCs worked out at 1000 nM. Moreover, the IC50 is 165 nM with HIV-1 (HIV-1 isolate A012 post-AZT) and 144 nM with HIV-1 (HIV-1 isolate A012 pre-AZT).

The term CC50 denotes the concentration giving 50% cytotoxicity. What is called half-life is how long it takes for the measured level to halve. In general, IC50 refers to the midpoint of a concentration-inhibition curve.
